Experimental data from patent US20170007561A1, “CONTEMPORANEOUS, HETEROGENEOUSLY-ORIENTED, MULTI-TARGETED THERAPEUTIC MODIFICATION AND/OR MODULATION OF DISEASE BY ADMINISTRATION OF SULFUR-CONTAINING, AMINO ACID-SPECIFIC SMALL MOLECULES” (BioNumerik Pharmaceuticals, Inc., priority 2014, published 2017).
Entries after “also recorded” stand apart in the source; their conditions may differ.

What was measured:
bovine TrxR = molecular target: T1, bovine TrxR (Bos taurus, UniProt O62768); assay: TrxR NADPH oxidation assay without Trx (Reaction A); type: biochemical; details: TrxR alone + NADPH, no Trx; disulfide 0.5 mM
T1 construct: purchased American Diagnostica
T1 sequence (O62768 1-499): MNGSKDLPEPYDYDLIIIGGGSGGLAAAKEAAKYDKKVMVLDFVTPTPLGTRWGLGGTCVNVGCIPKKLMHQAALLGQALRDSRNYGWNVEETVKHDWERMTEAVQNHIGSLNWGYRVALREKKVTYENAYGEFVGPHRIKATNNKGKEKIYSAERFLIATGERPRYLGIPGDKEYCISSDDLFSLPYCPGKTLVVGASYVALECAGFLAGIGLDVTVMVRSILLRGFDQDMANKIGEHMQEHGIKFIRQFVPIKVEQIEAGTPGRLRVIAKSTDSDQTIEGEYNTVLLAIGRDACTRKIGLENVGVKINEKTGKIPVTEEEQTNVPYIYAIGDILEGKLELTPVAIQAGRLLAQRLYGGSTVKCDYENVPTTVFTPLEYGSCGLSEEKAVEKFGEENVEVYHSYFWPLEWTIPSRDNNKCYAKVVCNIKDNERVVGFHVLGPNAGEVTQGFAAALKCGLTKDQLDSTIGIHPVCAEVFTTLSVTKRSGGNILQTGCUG

TrxR/Trx system = molecular target: T2, TrxR/Trx system (Homo sapiens, UniProt P10599); assay: TrxR/Trx NADPH oxidation assay; type: biochemical; details: increasing concentrations of test substance
T2 construct: purchased Sigma (Trx); American Diagnostica (bovine TrxR)
T2 sequence (P10599 1-105): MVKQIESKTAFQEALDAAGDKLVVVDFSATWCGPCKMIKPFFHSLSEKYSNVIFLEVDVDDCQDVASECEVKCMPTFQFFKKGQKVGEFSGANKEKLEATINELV
Excerpt: (Note: error bars are small and may be obscured by the symbols). […] (Note: error bars were omitted but assays were run in quadruplicate with typical errors of 5-8% between individual replicates). […] Panel D: Initial velocity reaction rates corresponding to progress curves shown in Panel C. With time, Trx-mesna and Trx-GSH are converted back to apo-Trx by Trx reductase (see also, FIG. 69, Panel E).

[1] = test system: Trx/TrxR system in human cancer cells; details: cited from earlier work
[2] = test system: mammalian thioredoxin reductase (TrxR); details: cited from earlier work
some cell lines = assay: In vitro cytotoxicity of mesna; details: ≦400 μM; unpublished data
[3] = test system: bovine brain microtubule protein (α-/β-tubulin); assay: Microtubule protein polymerization assay (OD350); type: biochemical; details: for effect on GTP promoted microtubule protein polymerization: mesna, even at 10 mM
[4] = read-out: Cmax for mesna; 41 g/m^2 Tavocept; cited from earlier work
[5] = test system: non-small cell lung cancer; details: patients greater than or equal to 65 years, carboplatin and paclitaxel chemotherapy; cited from earlier work
[6] = molecular target: Recombinant human thioredoxin (Trx) (human) (UniProt P10599)
[7] = molecular target: T3, human Trx with rat liver TrxR (Homo sapiens, UniProt P10599); assay: TrxR/Trx insulin disulfide reduction assay (NADPH oxidation 340 nm, insulin B chain precipitation 650 nm); type: biochemical; details: modified Trx purified from free Tavocept or glutathione disulfide
T3 sequence (P10599 1-105): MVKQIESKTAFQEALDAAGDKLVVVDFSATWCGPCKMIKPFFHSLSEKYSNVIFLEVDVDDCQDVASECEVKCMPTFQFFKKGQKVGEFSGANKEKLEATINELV

With “Recombinant human thioredoxin (Trx) (from UniProt P10599) (enzyme)” the NADPH Oxidation (nmoles/min/mL) (nmoles/min/mL) (insulin) was 18.

In the case of `NC(CCSSCCS(=O)(=O)O)C(=O)O` (centres unmarked) [MSSH, mesna-homocysteine disulfide], the “NADPH Oxidation, Reaction A” value (bovine TrxR) is reported as 0.0 ± 0.03 nmol/min/mL and the “NADPH oxidation by TrxR and Trx” value (TrxR/Trx system) is reported as “increases”.

For `COc1cccc2c1C(=O)c1c(O)c3c(c(O)c1C2=O)C[C@@](O)(C(=O)CO)C[C@@H]3O[C@H]1C[C@H](N)[C@H](O)[C@H](C)O1` [doxorubicin], the “Inhibition of Trx/TrxR system and cellular ribonucleotide reductase activity” value [1] is listed as “inhibit the Trx/TrxR system resulting in a concentration-dependent inhibition of cellular ribonucleotide reductase activity” and the “Inhibition of TrxR” value [2] is listed as “not inhibitors of TrxR”.

“bovine Trx reductase (TrxR) (from UniProt O62768) (enzyme)” gave an NADPH Oxidation (nmoles/min/mL) (nmoles/min/mL) (insulin) of 0.3.

With `O=S(=O)([O-])CCS.[Na+]` [mesna, 2-mercapto ethane sulfonate] the Cytotoxicity in vitro (some cell lines) was “can be cytotoxic to some cell lines”, the “effect alone on microtubule protein polymerization” value ([3]; in the absence of monoaquocisplatin) was “neither mesna nor cysteine alone (in the absence of monoaquocisplatin) had any effect; also recorded: no detectable effect” and the “effect on paclitaxel-induced hyperpolymerization of MTP” value ([3]; mesna alone) was “no detectable effect”. The “effect on GTP promoted microtubule protein polymerization” value [3] was “did not affect microtubule protein polymerization in an appreciable manner”, the “effect on GTP promoted microtubule protein polymerization” value ([3]; listed as Mesna) was “does not affect” and the “protection against monoaquocisplatin-induced loss of microtubule protein polymerization” value ([3]; preincubated with monoaquocisplatin (36 μM), mesna or cysteine 200 μM) was “prevented the monoaquocisplatin-induced loss; also recorded: able to protect”. For the same molecule, the Cmax [4] was roughly 323 µM.

In the case of Avastin: Avastin (bevacizumab), the Survival advantage [5] is given as “did not confer a survival advantage”.

In the case of `CCOC(=O)NC1=C(N2CC2)C(=O)C(NC(=O)OCC)=C(N2CC2)C1=O` [Diaziquone], the “Inhibition of Trx/TrxR system and cellular ribonucleotide reductase activity” value [1] is given as “inhibit the Trx/TrxR system resulting in a concentration-dependent inhibition of cellular ribonucleotide reductase activity”.

In the case of `NC(CSSCCS(=O)(=O)O)C(=O)O` (centres unmarked) [MSSC, mesna-cysteine disulfide], the “NADPH Oxidation, Reaction A” value (bovine TrxR) is reported as 0.2 ± 0.03 nmol/min/mL and the “NADPH oxidation by TrxR and Trx” value (TrxR/Trx system) is reported as “increases”.

Molecule “Tavocept-modified Prx (Prx-mesna) (from UniProt Q06830) (enzyme)” has a rate of NADPH oxidation at 340 nm in the Prx assay (% reduction in rate) [6] of 43.

B1: Trx-mesna: Trx covalently modified by a Tavocept-derived mesna moiety (protein)
chain: MVKQIESKTAFQEALDAAGDKLVVVDFSATWCGPCKMIKPFFHSLSEKYSNVIFLEVDVDDCQDVASECEVKCMPTFQFFKKGQKVGEFSGANKEKLEATINELV
modifications: Tavocept-derived mesna mixed disulfide on Cys73 and on Cys62 or Cys69 (mass spectroscopy)
notes: Trx covalently modified by a Tavocept-derived mesna moiety
With B1 the “Effect on initial velocity of insulin reduction relative to apo-Trx” value [7] was “inhibitory effect”.

B2: Trx-GSH: Trx modified by glutathione after incubation with glutathione disulfide (protein)
chain: MVKQIESKTAFQEALDAAGDKLVVVDFSATWCGPCKMIKPFFHSLSEKYSNVIFLEVDVDDCQDVASECEVKCMPTFQFFKKGQKVGEFSGANKEKLEATINELV
modifications: glutathionylated (cysteine-73 in the control reactions with glutathione)
notes: Trx modified by glutathione after incubation with glutathione disulfide
For B2, the “Effect on initial velocity of insulin reduction relative to apo-Trx” value [7] was “a clear effect on initial velocity”.
